Reference: US9194802B2, “Luminescent probes having a phenanthridinyl antenna, and methods of use” (REGENTS OF THE UNIVERSITY OF MINNESOTA, priority 2012, dated 2015)

Tests used:
CTP = test: Stern-Volmer time-delayed luminescence quenching titration with CTP; type: binding; details: excitation 346 nm, time-delay 0.1 ms, probe 10 μM, water, Tris 10 mM, pH 7.0, 20° C., n=3, emission integrated 450-650 nm (Tb) or 550-750 (Eu)
Protocol: (§1) Unless otherwise noted, starting materials were obtained from commercial suppliers and used without further purification. Water was deionized and further purified by a Millipore cartridge system (resistivity 1.8×10^7Ω). All organic extracts were dried over anhydrous MgSO4 and solvents were removed with a rotary evaporator. Flash chromatography was performed on Salicycle Silica Gel (230-400 mesh) or Brockmann activated aluminum oxide (neutral, 60 mesh). ^1H NMR spectra were recorded on a Varian 300 or Varian 500 at 300 MHz or 500 MHz, respectively, and ^13C NMR spectra on a Varian 300 at 75 MHz; the residual solvent peak was used as an internal reference. Data for ^1H NMR are recorded as follows: chemical shift (δ, ppm), multiplicity (s, singlet; br s, broad singlet; d, doublet, t, triplet; q, quartet; m, multiplet), integration, coupling constant (Hz). Data for ^13C NMR are reported in terms of chemical shift (δ, ppm). Mass spectra (LR=lo2w resolution; HR=high resolution; MS-ESI=electrospray mass spectrometry) were recorded on a Bruker BioTOF II. Purity of lanthanide complexes was evaluated by high performance liquid chromatography (HPLC) using a Varian Microsorb 300-5 C18 250 mm×4.6 mm at a flow rate was 1.0 mL/min (see supporting information for spectra and solvent gradients). UV-Vis data was obtained on a Cary Bio 100 UV-Vis Spectrophotometer. Data was collected over the range of 200-800 nm. Fluorescence data was acquired on a Varian Cary Eclipse Fluorescence Spectrophotometer using a quartz cell with a path length of 10 mm, excitation slit width of 5 nm and emission slit width of 5 nm at T=20° C. Solutions were not degased prior to measurement of their luminescence spectra and lifetimes.

UMP = test: Stern-Volmer time-delayed luminescence quenching titration with UMP; type: binding; details: excitation 346 nm, time-delay 0.1 ms, probe 10 μM, water, Tris 10 mM, pH 7.0, 20° C., n=3, emission integrated 450-650 nm (Tb) or 550-750 (Eu)
Protocol: as §1

GDP = test: Stern-Volmer time-delayed luminescence quenching titration with GDP; type: binding; details: excitation 346 nm, time-delay 0.1 ms, probe 10 μM, water, Tris 10 mM, pH 7.0, 20° C., n=3, emission integrated 450-650 nm (Tb) or 550-750 (Eu)
Protocol: as §1

CMP = test: Stern-Volmer time-delayed luminescence quenching titration with CMP; type: binding; details: excitation 346 nm, time-delay 0.1 ms, probe 10 μM, water, Tris 10 mM, pH 7.0, 20° C., n=3, emission integrated 450-650 nm (Tb) or 550-750 (Eu)
Protocol: as §1

ADP = test: Stern-Volmer time-delayed luminescence quenching titration with ADP; type: binding; details: for Stern-Volmer constant KSV with ADP: excitation 346 nm, time-delay 0.1 ms, probe 10 μM, water, Tris 10 mM, pH 7.0, 20° C., n=3, emission integrated 450-650 nm (Tb) or 550-750 (Eu)
Protocol: as §1

AMP = test: Stern-Volmer time-delayed luminescence quenching titration with AMP; type: binding; details: for Stern-Volmer constant KSV with AMP: excitation 346 nm, time-delay 0.1 ms, probe 10 μM, water, Tris 10 mM, pH 7.0, 20° C., n=3, emission integrated 450-650 nm (Tb) or 550-750 (Eu)
Protocol: as §1

CDP = test: Stern-Volmer time-delayed luminescence quenching titration with CDP; type: binding; details: excitation 346 nm, time-delay 0.1 ms, probe 10 μM, water, Tris 10 mM, pH 7.0, 20° C., n=3, emission integrated 450-650 nm (Tb) or 550-750 (Eu)
Protocol: as §1

[1] = test system: PKAc, the catalytic domain of protein kinase A; test: Continuous monitoring of ATP to ADP conversion during phosphorylation of KRRWSAP-NH2 by PKAc; type: biochemical; details: both probes 10 μM, PKAc 1 μM, peptide 1.5 mM, ATP 1 mM, 37° C., 0-6 hours; Tb at 490 and 545 nm, Eu at 688 and 700 nm
Protocol: FIG. 29 illustrates an exemplary embodiment of continuous monitoring of ATP to ADP conversion during enzymatic phosphorylation of the peptide KRRWSAP-NH2 by its kinase PKAc. Experimental conditions: [Tb-DOTAm-Phen]^3+=10 μM, Eu-DOTA-Phen=10 μM, [PKAc]=1 μM, [amide-blocked KRRWSAP-NH2]=1.5 mM, [ATP]=1 mM, [Tris]=10 mM, [Brij-35]=0.05%, [MgCl2]=50 mM, [EGTA]=5 mM, [DTT]=2 mM, pH 7.0, T=37° C., excitation at 346 nm, time delay=0.1 ms. Reaction time: 0-6 hours.
The ability of the two lanthanide probes to monitor enzymatic reactions involving ATP or GTP directly and continuously was evaluated with PKAc, the catalytic domain of protein kinase A. PKAc is a serine-threonine protein kinase that is actively studied as a biological target in cancer therapy (Naviglio et al., Expert Opin. Ther. Targets, 2009, 13, 83-92). […] Phosphorylation of the substrate and conversion of ATP to ADP takes place only when all components are present in the buffer. […] [Tb-DOTAm-Phen]^3+ and Eu-DOTA-Phen are thus able to directly monitor kinases' activities by time-gated luminescence spectroscopy. […] It should be noted, however, that these probes are not intended for use in cells as the presence of more than two purine nucleotides would make the results hard to interpret.

GTP = test: Stern-Volmer time-delayed luminescence quenching titration with GTP; type: binding; details: for Stern-Volmer constant KSV with GTP: excitation 346 nm, time-delay 0.1 ms, probe 10 μM, water, Tris 10 mM, pH 7.0, 20° C., n=3, emission integrated 450-650 nm (Tb) or 550-750 (Eu)
Protocol: as §1

UDP = test: Stern-Volmer time-delayed luminescence quenching titration with UDP; type: binding; details: excitation 346 nm, time-delay 0.1 ms, probe 10 μM, water, Tris 10 mM, pH 7.0, 20° C., n=3, emission integrated 450-650 nm (Tb) or 550-750 (Eu)
Protocol: as §1

GMP = test: Stern-Volmer time-delayed luminescence quenching titration with GMP; type: binding; details: excitation 346 nm, time-delay 0.1 ms, probe 10 μM, water, Tris 10 mM, pH 7.0, 20° C., n=3, emission integrated 450-650 nm (Tb) or 550-750 (Eu)
Protocol: as §1

UTP = test: Stern-Volmer time-delayed luminescence quenching titration with UTP; type: binding; details: excitation 346 nm, time-delay 0.1 ms, probe 10 μM, water, Tris 10 mM, pH 7.0, 20° C., n=3, emission integrated 450-650 nm (Tb) or 550-750 (Eu)
Protocol: as §1

ATP = test: Stern-Volmer time-delayed luminescence quenching titration with ATP; type: binding; details: for Stern-Volmer constant KSV with ATP: excitation 346 nm, time-delay 0.1 ms, probe 10 μM, water, Tris 10 mM, pH 7.0, 20° C., n=3, emission integrated 450-650 nm (Tb) or 550-750 (Eu); for log KSV for ATP: from Stern-Volmer constants of Table 2
Protocol: as §1

[2] = Dickins et al., J. Am. Chem. Soc., 2002; cited from earlier work

Compound	Stern-Volmer constant KSV with CTP (CTP)	Stern-Volmer constant KSV with UMP (UMP)	Stern-Volmer constant KSV with GDP (GDP)	Stern-Volmer constant KSV with CMP (CMP)	Stern-Volmer constant KSV with ADP (ADP)	Stern-Volmer constant KSV with AMP (AMP)	Stern-Volmer constant KSV with CDP (CDP)	time-gated luminescence as the PKAc reaction proceeds (ADP:ATP ratio increases) [1]	Stern-Volmer constant KSV with GTP (GTP)	Stern-Volmer constant KSV with UDP (UDP)	Stern-Volmer constant KSV with GMP (GMP)	Stern-Volmer constant KSV with UTP (UTP)	Stern-Volmer constant KSV with ATP (ATP)	log KSV for ATP (ATP)	other results
Eu-DOTA-Phen	0.006(1)	0.007(2)	0.164(3)	0.008(1)	0.058(1)	0.053(1)	0.008(1)	remains constant	0.099(1)	0.002(2)	0.118(2)	0.001(2)	0.065(1)	−1.2	–
Tb-PhenDOTAm	0.103 ± 0.007	0.070 ± 0.004	9.84 ± 0.05	0.139 ± 0.006	0.85 ± 0.02	0.397 ± 0.005	0.149 ± 0.009	increases	33.1 ± 0.1	0.065 ± 0.007	2.84 ± 0.01	0.047 ± 0.002	1.28 ± 0.05	0.11	Stern-Volmer constant KSV with CTP (CTP; listed as [Tb-DOTAm-Phen]^3+): 0.103(7); Stern-Volmer constant KSV with UMP (UMP; listed as [Tb-DOTAm-Phen]^3+): 0.070(4); Stern-Volmer constant KSV with GDP (GDP; listed as [Tb-DOTAm-Phen]^3+): 9.84(5); Stern-Volmer constant KSV with CMP (CMP; listed as [Tb-DOTAm-Phen]^3+): 0.139(6); phosphorescence quenched by ADP (ADP; 1 mM ADP): 47.4%; Stern-Volmer constant KSV with ADP (ADP; listed as [Tb-DOTAm-Phen]^3+): 0.85(2); phosphorescence quenched by AMP (AMP; 1 mM AMP): 31.0%; Stern-Volmer constant KSV with AMP (AMP; listed as [Tb-DOTAm-Phen]^3+): 0.397(5); Stern-Volmer constant KSV with CDP (CDP; listed as [Tb-DOTAm-Phen]^3+): 0.149(9); increase of apparent binding affinity for GTP over that of the neutral complex (12) (GTP; +3 charged probe (1) versus neutral complex (12)): 300 fold; Stern-Volmer constant KSV with GTP (GTP; listed as [Tb-DOTAm-Phen]^3+): 33.1(1); Stern-Volmer constant KSV with UDP (UDP; listed as [Tb-DOTAm-Phen]^3+): 0.065(7); Stern-Volmer constant KSV with GMP (GMP; listed as [Tb-DOTAm-Phen]^3+): 2.84(1); Stern-Volmer constant KSV with UTP (UTP; listed as [Tb-DOTAm-Phen]^3+): 0.047(2); time-gated luminescence quenched by ATP (ATP; 1 mM ATP): 59.7%; Stern-Volmer constant KSV with ATP (ATP; listed as [Tb-DOTAm-Phen]^3+): 1.28(5)
O=C([O-])CN1CCN(CC(=O)[O-])CCN(CC(=O)O)CCN(CC(=O)[O-])CC1.[Gd+3] [Gd-DOTA]	–	–	–	–	–	–	–	–	–	–	–	–	–	–	log Ka with biphosphate [2]: 2.2
